In patent publication US5801263A, “Process for preparing tertiary phosphines containing phosphinate or phosphonate groups, and novel tertiary phosphines containing phosphinate groups” (Hoechst Aktiengesellschaft, priority 1996, dated 1998):
Where a name gives a salt, the structure may show the parent alone.

Key:
[1] = in water, at 20° C.; cited from earlier work
Solubility in water = assay type: physicochemical; details: sodium salt, no temperature printed for this value
Protocol: 100 ml of a 3.7% strength by weight sodium hydrogen carbonate solution (44.1 mmol NaHCO3) are added to 15.0 g (44.1 mmol) of (4-diphenylphosphinophenyl)methylphosphinic acid and the mixture stirred at room temperature until CO2 formation has ended. The aqueous solution is completely evaporated and dried under reduced pressure. 15.6 g (97% of theory) of sodium (4-diphenylphosphinophenyl)methylphosphinate are obtained. Solubility in water: 590 g/l

Row | Molecule | water solubility (literature comparison) [1] [mg/mL] | Solubility in water (Solubility in water) [mg/mL]
1 | O=S(=O)(O)c1cccc(P(c2ccccc2)c2ccccc2)c1 [Na[TPPMS], sodium salt of triphenylphosphinemonosulfonate] | 80 | 
2 | CP(=O)(O)c1ccc(P(c2ccccc2)c2ccccc2)cc1 [Sodium (4-diphenylphosphinophenyl)methylphosphinate] |  | 590
3 | disodium salt of triphenylphosphinemonophosphonate [Na2 TPPMP] | 380 | 
